Test results published in patent publication US20260055117A1, “SUBSTITUTED PYRIDONE GPR84 ANTAGONISTS AND USES THEREOF” (Liminal BioSciences Limited, priority 2022, published 2026).

Biological target: T1, human GPR84 receptor (Homo sapiens, UniProt Q9NQS5)
T1 construct: host or cells: HEK293, transiently transfected
Experiment: Gαi biosensor BRET assay (GPR84 antagonism vs agonist ZQ-16)
Type: cell-based
Details: HEK293 cells, 200 nmol/L agonist ZQ-16; for inhibition at 10 µM: tested at 10 μM (concentration code D); for IC50: Gαi biosensor BRET assay; for inhibition at 2 µM: tested at 2 μM (concentration code A)
Excerpt: Background—The following assays can be used for determination of GPR84 activation in living HEK293 cells. The Gai BRET biosensor (Gagnon et al., 2018; Gales et al., 2006. Nat Struct Mol Biol. 13, 778-86; Saulieres et al., 2012. Nat Chem Biol. 8, 622-30) allows to directly monitor GPR84-mediated activation of Gai. The Gai biosensor consists of a Rluc8-tagged Gai2 subunit, a GFP10-tagged Gy2 subunit, and an untagged GB1. Agonist stimulation and GPR84 activation triggers a physical separation between the RLuc8-Gai donor and the GFP10-Gy2 acceptor, resulting in a decrease in BRET signal whose amplitude is correlated to ligand efficacy (Gales et al., 2006). Moreover, signaling functions of GPCRs are tightly regulated by endocytosis, the targeting of receptors to endosomes and their sorting to lysosomes or recycling to the plasma membrane. The early endosomes (EEs) trafficking assay (Namkung et al., 2016. Nat Commun. 7, 12178) uses Rluc8-tagged GPR84 and Renilla GFP (rGFP) attached to the FYVE domain from human endofin/zinc finger FYVE domain-containing protein 16, which binds phosphatidylinositol 3-phosphate in EEs. Agonist stimulation of GPR84-Rluc8 leads to trafficking of the receptor to EEs, and ensuing increase of the donor concentration relative to the rGFP-FYVE acceptor anchored in the same cellular compartment, and thus results in an increase in BRET signal.
Plasmids—The cDNA clones for human GPR84 receptor, human Gai2, GB1, and Gy2 were obtained from the cDNA Resource Center (www.cdna.org). GFP10 (F64L, S147P, S202F and H231L variant of Aequorea victoria Green Fluorescent Protein) gBlocks gene fragments (Integrated DNA Technologies, IA) and linker were inserted in frame at the N-terminus of human Gy2. Rluc8 (A55T, C124A, S130A, K136R, A143M, M185V, M253L, and S287L variant of the Renilla reniformis luciferase) gBlocks gene fragment was inserted with linkers in frame in between residues 91 and 92 of Gai2 or at the C-terminus of GPR84. The FYVE domain from human endofin (residues Q739 to K806) attached in frame at the C terminus of a humanized Renilla GFP (rGFP), were synthesized as gBlocks gene fragments.
Bioluminescence Resonance Energy Transfer (BRET) Measurement-HEK293 cells were transfected with GPR84-Rluc8 and rGFP-FYVE for the EEs trafficking biosensor or with GPR84, Gai2-Rluc8, GFP10-Gy2, and GB1 for the Ga; biosensor. The following day, transiently transfected cells were seeded in 96-well white clear bottom microplates coated with poly-D-lysine and left in culture for 24 hours. Cells were washed once with Tyrode's buffer (140 mmol/L NaCl, 1 mmol/L CaCl2), 2.7 mmol/L KCl, 0.49 mmol/L MgCl2, 0.37 mmol/L NaH2PO4, 5.6 mmol/L glucose, 12 mmol/L NaHCO3, and 25 mmol/L HEPES, pH 7.5) before performing assays in Tyrode's buffer. Test compounds were incubated with cells for 5 (Gai) or 15 (EEs) minutes at 37° C. before addition of 200 nmol/L of the GPR84 agonist ZQ-16 (2-(Hexylthio)-6-hydroxy-4 (3H)-pyrimidinone) for 5 minutes at room temperature (Gai) or 30 minutes at 37° C. (EEs). The Rluc8 substrate coelenterazine 400A (Prolume, Lakeside, A Z) was added at a final concentration of 5 μmol/L and BRET readings were collected using an Infinite M1000 microplate reader (Tecan, Morrisville, N C). BRET2 readings between Rluc8 and GFP10 or rGFP were collected by sequential integration of the signals detected in the 370 to 450 nm (Rluc8) and 510 to 540 nm (GFP10, rGFP) windows. The BRET signal was calculated as the ratio of light emitted by acceptor (GFP10, rGFP) over the light emitted by donor (Rluc8). The values were corrected to net BRET by subtracting the background BRET signal obtained in cells transfected with Rluc8 constructs alone. Ligand-promoted net BRET values were calculated by subtracting vehicle-induced net BRET from ligand-induced net BRET.

T1 sequence (Q9NQS5 whole entry): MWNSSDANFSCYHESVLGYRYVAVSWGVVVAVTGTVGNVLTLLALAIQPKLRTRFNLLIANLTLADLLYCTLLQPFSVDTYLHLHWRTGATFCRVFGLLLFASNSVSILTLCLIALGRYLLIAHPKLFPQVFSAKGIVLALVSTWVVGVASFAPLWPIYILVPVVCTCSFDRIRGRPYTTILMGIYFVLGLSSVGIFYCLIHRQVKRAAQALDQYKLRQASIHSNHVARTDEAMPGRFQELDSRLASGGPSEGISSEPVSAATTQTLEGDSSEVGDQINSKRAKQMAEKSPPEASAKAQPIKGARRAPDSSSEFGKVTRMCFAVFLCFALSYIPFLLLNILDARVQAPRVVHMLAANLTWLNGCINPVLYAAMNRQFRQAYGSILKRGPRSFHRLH

SMILES	inhibition at 10 µM	IC50	inhibition at 2 µM
Cc1cc(OCS(=O)(=O)N(C)C)cc(=O)n1[C@H](C)c1ccc(C#CC2CC2)cc1 [Compound I-41]	50 to 75%		
Cc1cc(OCC(=O)N(C)C2CC2)cc(=O)n1[C@H](C)c1ccc(C#CC2CC2)cc1 [Compound I-42]	> 75%	≤ 300 nM	
Cc1cc(OCC(=O)NC2CCN(C)CC2)cc(=O)n1[C@H](C)c1ccc(C#CC2CC2)cc1 [Compound I-43]	50 to 75%		
Cc1cc(OCC(=O)N(C)C2CCN(C)CC2)cc(=O)n1[C@H](C)c1ccc(C#CC2CC2)cc1 [Compound I-44]			> 75%
CNS(=O)(=O)COc1cc(C)n([C@H](C)c2ccc(C#CC3CC3)c(F)c2)c(=O)c1 [Compound I-45]	50 to 75%	300 to 1000 nM	
Cc1cc(OCS(N)(=O)=O)cc(=O)n1[C@H](C)c1ccc(C#CC2CC2)c(F)c1 [Compound I-46]	> 75%		
CNS(=O)(=O)COc1cc(C)n([C@H](C)c2ccc(C#CC3CC3)cc2)c(=O)c1 [Compound I-47]	50 to 75%		
Cc1cc(OCS(N)(=O)=O)cc(=O)n1[C@H](C)c1ccc(C#CC2CC2)cc1 [Compound I-48]	> 75%		
Cc1cc(OCC(=O)NCC(C)C)cc(=O)n1[C@H](C)c1ccc(C#CC2CC2)cc1 [Compound I-49]	> 75%		
Cc1cc(OCC(=O)NC2CC2)cc(=O)n1[C@H](C)c1ccc(C#CC2CC2)cc1 [Compound I-50]	> 75%	300 to 1000 nM	
Cc1cc(OCC(=O)NC2CC(F)(F)C2)cc(=O)n1[C@H](C)c1ccc(C#CC2CC2)cc1 [Compound I-51]	50 to 75%		
Cc1cc(OCC(=O)NC2COC2)cc(=O)n1[C@H](C)c1ccc(C#CC2CC2)cc1 [Compound I-52]	50 to 75%		
Cc1cc(OCc2ncccn2)cc(=O)n1[C@H](C)c1ccc(C#CC2(C(F)(F)F)CC2)c(F)c1 [Compound I-53]	50 to 75%		
Cc1cc(OCC(=O)NC(C)C)cc(=O)n1[C@H](C)c1ccc(C#CC2CC2)cc1 [Compound I-54]	> 75%		
Cc1cc(OCC(=O)N(C)C(C)C)cc(=O)n1[C@H](C)c1ccc(C#CC2CC2)cc1 [Compound I-55]	> 75%	≤ 300 nM	
Cc1cc(OCC(=O)N(C)C)cc(=O)n1[C@H](C)c1ccc(C#CC2(C(F)(F)F)CC2)cc1 [Compound I-56]	> 75%	≤ 300 nM	
Cc1cc(OCC(=O)N(C)C2CCOCC2)cc(=O)n1[C@H](C)c1ccc(C#CC2CC2)cc1 [Compound I-57]		≤ 300 nM	> 75%
Cc1cc(OCC(=O)NC2CN(C)C2)cc(=O)n1[C@H](C)c1ccc(C#CC2CC2)cc1 [Compound I-58]	50 to 75%		
Cc1cc(OCC(=O)N(C)C2CN(C)C2)cc(=O)n1[C@H](C)c1ccc(C#CC2CC2)cc1 [Compound I-59]	> 75%		
Cc1cc(OCC(=O)N2CCN(C)CC2)cc(=O)n1[C@H](C)c1ccc(C#CC2CC2)cc1 [Compound I-60]	> 75%	≤ 300 nM	
Cc1cc(OCC(=O)N2CCNCC2)cc(=O)n1[C@H](C)c1ccc(C#CC2CC2)cc1 [Compound I-61]	> 75%		
Cc1cc(OCc2ncccn2)cc(=O)n1[C@H](C)c1ccc(C#CC2CC2(F)F)cc1 (stereo partly drawn) [Compound I-62]	50 to 75%		
Cc1cc(OCC(=O)N(C)C)cc(=O)n1[C@H](C)c1ccc(C#CC2CC2(F)F)cc1 (stereo partly drawn) [Compound I-63]	> 75%	≤ 300 nM	

SMILES	inhibition at 10 µM	IC50	inhibition at 2 µM
Cc1cc(OCC(=O)N(C)C)cc(=O)n1[C@H](C)c1ccc(C#CC2CC2(F)F)c(F)c1 (stereo partly drawn) [Compound I-64, 2-((1-((1R)-1-(4-((2,2-difluorocyclopropyl)ethynyl)-3-fluorophenyl)ethyl)-6-methyl-2-oxo-1,2-dihydropyridin-4-yl)oxy)-N,N-dimethylacetamide]	> 75%	≤ 300 nM	
Cc1cc(OCC(=O)N(C)CC(C)C)cc(=O)n1[C@H](C)c1ccc(C#CC2CC2)cc1 [Compound I-65]	> 75%	≤ 300 nM	
Cc1cc(OCC(=O)NC2CCOCC2)cc(=O)n1[C@H](C)c1ccc(C#CC2CC2)cc1 [Compound I-66]	50 to 75%	300 to 1000 nM	
Cc1cc(OCC(=O)N(C)C2CC(F)(F)C2)cc(=O)n1[C@H](C)c1ccc(C#CC2CC2)cc1 [Compound I-67]	> 75%	300 to 1000 nM	
Cc1nc(OCC(=O)N(C)C2COC2)cc(=O)n1[C@H](C)c1ccc(C#CC2CC2)cc1 [Compound I-68]	> 75%	≤ 300 nM	
Cc1cc(OCC(=O)NC2CNC2)cc(=O)n1[C@H](C)c1ccc(C#CC2CC2)cc1 [Compound I-69]	25 to 50%		
Cc1cc(OCc2ncccc2C(F)(F)F)cc(=O)n1[C@H](C)c1ccc(C#CC2CC2)cc1 [Compound I-71]	> 75%	300 to 1000 nM	
Cc1cc(OCC(=O)N(C)C)cc(=O)n1[C@H](C)c1ccc(C#CC2CC2)c(O)c1 [Compound I-72]	> 75%	300 to 1000 nM	
[2H]C1(C#Cc2ccc([C@@H](C)n3c(C)cc(OCC(=O)N(C)C)cc3=O)cc2)CC1 [Compound I-73]		≤ 300 nM	> 75%
CC#CC#Cc1ccc([C@@H](C)n2c(C)cc(OCc3ncccn3)cc2=O)cc1 [Compound I-74]	25 to 50%		
Cc1cc(OCc2ncccn2)cc(=O)n1[C@H](C)c1ccc(C#CC#CC2CC2)cc1 [Compound I-75]	< 25%		
Cc1cc(OCc2ncc(NS(=O)(=O)C(F)(F)F)cn2)cc(=O)n1[C@H](C)c1ccc(C#CC2CC2)cc1 [Compound I-76]		≤ 300 nM	> 75%
Cc1cc(OCc2ncccn2)cc(=O)n1[C@H](C)c1ccc(C#CC2(C)CC2)cc1 [Compound I-77]	50 to 75%		
Cc1cc(OCC(=O)N(C)C2CNC2)cc(=O)n1[C@H](C)c1ccc(C#CC2CC2)cc1 [Compound I-78]	> 75%		
Cc1cc(OCC(=O)N2CC3(CCN(C)CC3)C2)cc(=O)n1[C@H](C)c1ccc(C#CC2CC2)cc1 [Compound I-79]	> 75%		
Cc1cc(OCC(=O)N(C)C)cc(=O)n1[C@H](C)c1ccc(C#CC2(C)CC2)cc1 [Compound I-80]	> 75%	≤ 300 nM	
Cc1cc(OCc2cnc(NS(C)(=O)=O)nc2)cc(=O)n1[C@H](C)c1ccc(C#CC2CC2)cc1 [Compound I-81]	> 75%	≤ 300 nM	
Cc1cc(OCc2cnc(NS(=O)(=O)C(F)(F)F)nc2)cc(=O)n1[C@H](C)c1ccc(C#CC2CC2)cc1 [Compound I-82]		≤ 300 nM	> 75%
Cc1cc(OCC(N(C)C)C(F)(F)F)cc(=O)n1[C@H](C)c1ccc(C#CC2CC2)c(F)c1 (stereo partly drawn) [Compound I-85]	50 to 75%		
Cc1cc(OCC(N(C)C)C(F)(F)F)cc(=O)n1[C@H](C)c1ccc(C#CC2CC2)cc1 (stereo partly drawn) [Compound I-86]	50 to 75%		
Cc1cc(OCC(=O)N(C)C)cc(=O)n1[C@H](C)c1ccc(C#CC2CC2)cc1Br [Compound I-87]	50 to 75%		
Cc1cc(OCC(=O)N2CCCC2)cc(=O)n1[C@H](C)c1ccc(C#CC2(C)CC2)cc1 [Compound I-88]	> 75%	300 to 1000 nM	
